# “And” between values parts separate entries of the source, which are not always exact repeats. Identical values can stand only once.
# How the values were obtained:
# MNCs = assay: Intracellular oxidants (DCF) in MNCs activated with cytokine cocktail and hemoglobin; assay type: cell-based, human; settings: for dampening effect on oxidant production: cytokine and hemoglobin activation, 10 μM steroid
# Protocol: (§1) PMNs and MNCs were harvested from blood via centrifugation with equal volumes of Polymorphprep, GIBCO (Grand Island, N.Y.) at 550×g for 35 minutes at 20° C. […] Replicate experiments were conducted with three to five donors from a pool of six consented male adults.
# (§2) PMNs (10,000,000/ml) and MNCs (20,000,000/ml) were loaded with 2,7-dichlorodihydrofluorescein-diacetate (DCFH-DA) (2 μM) (Molecular Probes; Eugene Oreg.) in HBSS for 30 minutes at 37° C. in a water bath. Non fluorescent DCFH is oxidized to fluorescent DCF by a variety of oxidants. The approach is sensitive, reproducible, and capable of measuring wide concentration range of intracellular oxidants. […] Treated PMNs or MNCs were incubated for 1 or 5 h in HBSS amended with physiological concentrations of Ca^2+ (1.5 mM), Mg^2+ (900 μM), glutamine (1.0 mM); GIBCO; Grand Island, N.Y.), arginine (100 μM), amino acids (1×MEM)(GIBCO; Grand Island, N.Y.), and tetrahydrobiopterin (1.0 μM). Flow cytometric analyses were performed with an argon laser (488 nm) and emission light measured behind a filter transmitting 530/30 nm light on a FACCalibur, Becton Dickinson (San Jose, Calif.) with CELLQuest data acquisition and analysis software. PMNs or MNCs were gated by forward- and side-scatter. For each sample, 10,000 PMNs or MNCs were collected.
# (§3) Statistical Analyses Intracellular oxidants in activated MNCs or PMNs treated with the three highest steroid concentrations or the L-NMMA treatment were compared to untreated activated MNCs or PMNs by Bonferroni corrected t-test.
# PMNs [1] = assay: Intracellular oxidants (DCF) in PMNs activated with cytokine cocktail and hemoglobin; assay type: cell-based, human; settings: for effect on oxidants in PMNs: cytokine and hemoglobin activated PMNs
# Protocol: as §1, §2, §3
# [2] = Organochlorine insecticide levels in serum of burn patients; assay type: in vivo, human; settings: for mean peak serum levels: nonsurviving burn patients; for mean peak serum levels / mean peak serum levels higher than in surviving patients: PBD5; for mean peak serum levels higher than in surviving patients: nonsurviving patients
# Protocol: Patients and Subjects. Analyses of xenoestrogens in archived serum were performed on samples from seven nonsurviving males and seven age- and burn-size matched surviving male burn patients admitted between 1991 and 1994 to the United States Army Institute of Surgical Research burn care facility. The criteria for selection of subjects were age (approximately 40-70 years), total burn surface area (≧25%), postburn survival (≧7 days) and lack of preburn disease. Inhalation injury was present in 6 of 7 surviving and 5 of 7 nonsurviving patients. In the non-surviving group, two patients died between postburn day (PBD) 7 and 11. Age-matched healthy males (n=12) were used as control subjects.
# Levels of insecticides in serum of burn patients on postburn day (PBD) 1, 3, 5, 7, and 11 were determined in accordance with a previously reported method25. This method used a Dynamic Thermal Stripper (Environchem, Kemblesville, Pa.) to sparge insecticides from 50 μl of serum. The insecticides were collected on Tenax solid sorbent and subsequently thermally desorbed with a Unacon 810 (Environchem, Kemblesville, Pa.) into a HP 5890 gas chromatograph (Hewlett Packard, Palo Alto, Calif.) equipped with a SPB-608 30 M, fused silica capillary column (J & W Scientific, Folsom, Calif.) and an electron capture detector. Levels of insecticides in serum stored at −75° C. were determined by comparing responses to standard curves constructed from certified standards (Ultra Scientific, Kingstown, R.I.) spiked into a composite sample consisting of serum from 3 subjects, previously determined to have low levels of each insecticide. For consistency, each patient's samples were analyzed during the same day by postburn day (PBD 1, 3, 7, and 11). The detection limit for HE and OC was 76 and 56 pg/mL, respectively. A reference serum sample pooled from 3 patients having medium levels of each insecticide was measured 1-2 times during each day of analyses. […] Serum cholesterol and triglyceride concentrations were determined using Instrumentation Laboratory reagents and analyzed on a Monarch Clinical Chemistry System (Instrumentation Laboratories, Inc., Lexington, Mass.).
# PMNs [3] = assay: Heme protein effect on DCFH oxidation in unstimulated, LPS and TNFα-, and PMA-stimulated PMNs, with or without NOS inhibitors, SOD or antioxidants; assay type: cell-based, human; settings: PMA-stimulated PMNs with arginine
# Protocol: DCFH-loaded PMNs were incubated with and without N-methyl-L-arginine (L-NMMA; 5 mM; Calbiochem, San Diego, Calif.) and heme proteins (0.3-1000 μg/mL) at 37 ° C. for 10 minutes. […] In unstimulated and LPS and TNFα -stimulated PMNs, the treatments were oxyMb, or oxyMb+L-NMMA (5 mM). […] RBC cell membranes were ruptured using a micro-ultrasonic cell disrupter, Kontes, Janke and Kukel Gmbh and CO. (Stauten, Germany). […] OxyMb was prepared by mixing excess sodium dithionite with Mb for 1 h and inorganic sulfur compounds were removed by dialyzing in HBSS buffer for 3 h. Percent iron in the ferric state in non-dithionite treated oxyMb or oxyHb was not assessed. […] […] cross-linked Hb was a gift from Walter Reed Army Institute of Research. […] Also, various concentrations of bovine liver Cu, Zn SOD (30-10,000 U/mL; 8-2640 μg/mL) and 30 μg/mL oxyMb were incubated with PMA-stimulated PMNs pretreated with and without L-NMMA. Flow cytometric measurements of oxidant-induced DCF fluorescence were performed as described above.
# PMNs [4] = assay: as above; assay type: cell-based, human; settings: PMA-stimulated PMNs; L-NMMA 5 mM, L-NIO 5 mM, glutathione 25 μM and ascorbate 25 μM, human SOD 300 U/mL
# PMNs [5] = settings: for decrease in DCFH oxidation: 10^−4 M oxidant; for increase in DCFH oxidation over control levels: 10^−5 M oxidant, 30 min
# PMNs [6] = assay: Propidium iodide staining of oxidant-treated PMNs (cell membrane integrity); settings: oxidant levels ≧10^−7 M
# PMNs [7] = assay: HE-induced DNA strand breaks in PMNs (dUTP nick end labeling); assay type: cell-based, human; settings: for effect on HE-induced DNA strand breaks: at HE-induced peak values (3-6 nM)
# Protocol: HE-induced DNA strand breaks in PMNs were measured by flow cytometry using the tdt-mediated dUTP nick end labeling assay, In Situ Cell Death Detection Kit (Boehringer Mannheim, Indianapolis, Ind.) according to manufacturer's instructions. PMNs were incubated with L-NMMA, 17β-E2 receptor antagonists, TNFα, and varying concentrations of HE as described in the above HE-induced DCFH oxidation experiments with the exception that HE incubation time was 2 h instead of 40 min.
# In Vitro measurements of oxidant production and cellular damage.
# PMNs [8] = assay: HE and 17β-E2 effects on intracellular oxidants (NO) in PMNs, DCFH oxidation; assay type: cell-based, human; settings: for effect on HE-induced intracellular oxidants (NO): ICI 182,780 0.1 nM
# Protocol: HE effects on intracellular levels of oxidants in PMNs were measured using a previously reported cytofluorometric procedure.
# (§4) The purity of PMNs and lymphocytes was greater than 88% and 95%, respectively, and their viability, as determined by trypan blue-exclusion, was greater than 90%.
# lymphocytes = assay: HE effect on lymphocyte membrane integrity in mixed PMN/lymphocyte preparation (propidium iodide)
# Protocol: HE effects on surrounding lymphocyte membrane integrity mediated by PMN-derived NO were determined by cytofluorometric measurements of intracellular propidium iodide levels in a mixed PMN/lymphocyte preparation using 100,000 lymphocytes and PMN/lymphocyte ratios of 0/1, 2/1, 4/1, 10/1). For comparison some aliquots of PMNs were loaded with L-NMMA (5 mM) or 2-(4-carboxyphenyl)-4,4,5,5-tetramethyl imidazoline-1-oxyl-3-oxide (carboxy-PTIO) (5 mM) (Calbiochem, La Jolla, Calif.), a NO scavenger, prior to incubating leukocytes with HE (1 nM) for 40 min.
# as §4
# [9] = TNFα 10 ng/mL added to HE-treated PMNs
compound,measurement,setting,value
"C[C@]12CC[C@@H]3c4ccc(O)cc4CC[C@H]3[C@@H]1CC[C@@H]2O [17β-E2, 17β-estradiol]",dampening effect on oxidant production,"MNCs; MNCs, after 1 h",65%
same,effect on oxidants in PMNs,PMNs [1],no effect on oxidants
ClC(Cl)=C(c1ccc(Cl)cc1)c1ccc(Cl)cc1 [DDE],increase of mean serum level,"[2]; nonsurvivors, by PBD 11",2.5 times
same,mean serum level,"[2]; nonsurvivors, by PBD 11",3667 pg/mL and 183 nM
"O.O.O.O.[Cl][Fe][Cl] [FeCl2.4H2O, reference compound]",effect on DCFH oxidation,PMNs [3],produced a decrease in DCFH oxidation above 30 μg/mL
"human erythrocyte Cu, Zn SOD: superoxide scavenger, superoxide dismutase from human erythrocytes",effect on oxyMb-induced DCFH oxidation,PMNs [4],increased oxyMb induced-DCFH oxidation
"OO [H2O2, hydrogen peroxide]",decrease in DCFH oxidation,PMNs [5],approximately 25%
same,increase in DCFH oxidation over control levels,PMNs [5],25 fold
same,PMNs staining positive for propidium iodide,PMNs [6],87%
TNFα,increase in amplitude of HE DNA strand break Gaussian curve,PMNs [7]; TNFα added to HE,445%
same,left shift of HE DNA strand break Gaussian curve,PMNs [7]; TNFα added to HE,10 fold
same,increase in amplitude of HE intracellular oxidant Gaussian curve,PMNs [8]; [9],60%
same,left shift of HE intracellular oxidant Gaussian curve,PMNs [8]; [9],10 fold
"CC(=O)[C@H]1CC[C@H]2[C@@H]3CCC4=CC(=O)CC[C@]4(C)[C@H]3CC[C@]12C [P4, progesterone]",dampening effect on oxidant production,"MNCs; MNCs, after 1 h",0%
same,effect on oxidants in PMNs,PMNs [1],no effect on oxidants
"CC1(C)N([O])C(c2ccc(C(=O)O)cc2)=[N+]([O-])C1(C)C [PTIO, 2-(4-carboxyphenyl)-4,4,5,5-tetramethyl imidazoline-1-oxyl-3-oxide, reference compound]",effect on HE-induced cell membrane damage in lymphocytes,lymphocytes; co-incubation with HE 1 nM,attenuated the HE-induced cell membrane damage in the lymphocytes
"CC/C(=C(\c1ccccc1)c1ccc(OCCN(C)C)cc1)c1ccccc1 [tamoxifen, reference compound]",effect on HE-induced DNA strand breaks,PMNs [7],nonsignificant trend for attenuating HE-induced DNA strand breaks
same,effect on 17β-E2-induced intracellular oxidants (NO),"PMNs [8]; L-NMMA 5 mM, tamoxifen 200 nM",completely inhibited the 17β-E2-induced NO levels
same,effect on HE-induced intracellular oxidants (NO),"PMNs [8]; L-NMMA 5 mM, tamoxifen 200 nM",completely eliminated the HE-induced increase in NO
ClC1=C(Cl)C2(Cl)C3C4OC4C(Cl)C3C1(Cl)C2(Cl)Cl (stereo not drawn) [HE],"HE concentration of peak response of DNA strand breaks, Gaussian curve",PMNs [7]; 2 h incubation,approximately 5 nM
same,"HE concentration of peak response of DNA strand breaks, with TNFα",PMNs [7]; co-incubation with TNFα,approximately 0.3 nM
same,effect on cell membrane damage in lymphocytes,"lymphocytes; HE 1 nM, PMN/lymphocyte ratios above 2",increased cell membrane damage in the lymphocytes
same,"HE concentration of peak response of intracellular oxidants, with TNFα",PMNs [8]; co-incubation with TNFα 10 ng/mL,approximately 0.1 nM
same,mean peak serum levels,[2],215 pg/ml and 0.55 nM
same,mean peak serum levels higher than in surviving patients,[2],approximately 90%
"CC(=N)NCCCC[C@H](N)C(=O)O [L-NIL, L-N^6-(-1-Iminoethyl)lysine]",effect on oxidants in activated MNCs,MNCs; L-NIL 10 μM,negligible effects on activated MNCs and PMNs
same,effect on oxidants in activated PMNs,PMNs [1]; L-NIL 10 μM,negligible effects on activated MNCs and PMNs
"CCN(CC)/[N+]([O-])=N/O.CCNCC [DEANO, diethylamine nitric oxide]",decrease in DCFH oxidation,PMNs [5],approximately 25%
same,increase in DCFH oxidation over control levels,PMNs [5],25 fold
same,PMNs staining positive for propidium iodide,PMNs [6],87%
hemoglobin: human hemoglobin (100 μg/mL),increase of mean oxidized DCF over unstimulated background,"MNCs; MNCs, after 1 h, data not shown",41%
same,increase of mean intracellular oxidized DCF over unstimulated background,"MNCs; MNCs, after 5 h",259%
same,increase of mean oxidized DCF over unstimulated background,"PMNs [1]; PMNs, after 1 h, data not shown",172%
same,increase of mean intracellular oxidized DCF over unstimulated background,"PMNs [1]; PMNs, after 5 h",197%
"C[C@]12CC[C@@H]3c4ccc(O)cc4C[C@@H](CCCCCCCCC[S+]([O-])CCCC(F)(F)C(F)(F)F)[C@H]3[C@@H]1CC[C@@H]2O (stereo partly drawn) [ICI 182,780, reference compound]",effect on HE-induced DNA strand breaks,PMNs [7],nonsignificant trend for attenuating HE-induced DNA strand breaks
same,effect on HE-induced intracellular oxidants (NO),"PMNs [8]; L-NMMA 5 mM, tamoxifen 200 nM",completely eliminated the HE-induced increase in NO
ClC1=C(Cl)[C@]2(Cl)[C@H]3[C@H]([C@H](Cl)[C@]4(Cl)O[C@H]34)[C@@]1(Cl)C2(Cl)Cl [OC],mean peak serum levels,[2],677 pg/ml and 1.59 nM
same,mean peak serum levels higher than in surviving patients,[2],approximately 90%
oxyhemoglobin [oxyHb],less efficient than oxyMb in inducing DCFH oxidation,PMNs [3],20-40%
C[C@]12CCC(=O)C=C1CC[C@@H]1[C@@H]2[C@@H](O)C[C@@]2(C)[C@H]1CC[C@]2(O)C(=O)CO [cortisol],time dependence of oxidant reduction in MNCs,MNCs; 5 h versus 1 h of stimulation,reduced oxidant levels in MNCs to a greater extent after 5 h as compared to 1 h of stimulation
same,dampening effect on oxidant production,"MNCs; MNCs, after 1 h",20%
same,effect on oxidants in PMNs,PMNs [1],modest trend for reducing oxidant levels after 5 h
